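Five compound concentrations were applied to cells in 96-well plates for 48 hours; endpoints were derived by simple linear interpolation of the resulting dose-response curve. Abbreviation: GI50, concentration required for 50% inhibition of growth.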 Active and inactive are the calls of the source. Cut-off read from the data, not from the text of the source: active = GI50 up to about 1.1 µM and inactive = higher.

Some test systems named below: HOP-18; RXF 631; XF498; DLD-1; DMS-273; M19-MEL; DU-145; MDA-N; PC-3.
Assay in all cases: NCI tumour cell line growth inhibition, 48 h

As to `CC(SC1=CC(=O)c2c(O)ccc(O)c2C1=O)C(=O)O` (stereo not drawn), the GI50 was > 55.3 µM (inactive) in the assay on HOP-18; 56.4 µM (inactive) with RXF 631; > 49.9 µM (inactive) with XF498; > 39.8 µM (inactive) with DLD-1; > 60.4 µM (inactive) in the assay on DMS-273.
Consider `CCCNC(=O)C(C)C1CCC2(C)C=CC(=O)C(C)=C2C1O` (stereo not drawn), for which the GI50 with HOP-18, in the assay with XF498, in the assay on DLD-1, with M19-MEL and with DMS-273 was > 100 µM (inactive) in each case.
In the case of `CCC(C)C(=O)c1c(O)c(C/C=C(\C)CCC=C(C)C)c(O)c2c(C(O)CC)cc(=O)oc12` (stereo not drawn), the GI50 with RXF 631 is 1.74 µM (inactive); in the assay with XF498 it was 1.82 µM (inactive); with DLD-1 it was 1.55 µM (inactive); with M19-MEL it was 2.28 µM (inactive); in the assay on DMS-273, 1.58 µM (inactive).
In the case of `Cc1nc2ccc(C(F)(F)F)cc2nc1Nc1ccc(Cl)c(Cl)c1`, the GI50 with HOP-18 is 15.3 µM (inactive); with RXF 631, 7.41 µM (inactive); in the assay on XF498 it was 10 µM (inactive); in the assay with DLD-1, 9.42 µM (inactive); in the assay on M19-MEL, 12.1 µM (inactive); in the assay on DMS-273, 4.81 µM (inactive).
On to `CC1NC(=O)C2=C1C(N)=NC(=O)C2` (stereo not drawn), for which the GI50 in the assay with HOP-18, in the assay on XF498, in the assay with DLD-1, in the assay with M19-MEL and in the assay with DMS-273 was > 100 µM (inactive) throughout.
As to `Cc1ccc2oc(=O)c(-c3ccccc3)nc2c1`, the GI50 was 34.2 µM (inactive) in the assay with HOP-18; 33.7 µM (inactive) in the assay on XF498; 11.7 µM (inactive) in the assay with DLD-1; 23.1 µM (inactive) in the assay with M19-MEL; 17.6 µM (inactive) in the assay with DMS-273.
`C[C@H]1COC(c2ccccn2)=N1`: the GI50 in the assay with HOP-18, in the assay on XF498, in the assay with DLD-1, with M19-MEL and in the assay with DMS-273 was > 100 µM (inactive) throughout.
On to `CC1(C)N=C(N)N=C(N)N1c1ccc(CCCCc2ccc(S(=O)(=O)F)cc2Cl)c(Cl)c1`, for which the GI50 was 53.7 µM (inactive) in the assay on HOP-18; 2.85 µM (inactive) in the assay with DU-145; 1.49 µM (inactive) in the assay on XF498; 1.57 µM (inactive) in the assay on DLD-1; 0.916 µM (active) with MDA-N; 1.11 µM (active) in the assay with PC-3. In the assay with DMS-273, the GI50 was 0.352 µM (active).
As to `CC(=O)n1nnc2ccc([N+](=O)[O-])cc21`, the GI50 was 90.6 µM (inactive) in the assay with HOP-18; > 100 µM (inactive) in the assay with XF498; > 100 µM (inactive) with DLD-1; > 100 µM (inactive) with M19-MEL; > 100 µM (inactive) in the assay with DMS-273.
Turning to `CC1=N/C(=C/c2ccc3c(c2)OCO3)C(=O)O1`, the GI50 with HOP-18, in the assay on RXF 631, in the assay with XF498, with M19-MEL and with DMS-273 was > 100 µM (inactive) in each case.
Take `CC(=O)NC(CCCNC(=O)N(C)N=O)C(=O)NCc1ccccc1` (stereo not drawn): the GI50 in the assay with RXF 631, with XF498, in the assay with DLD-1, in the assay on M19-MEL and in the assay on DMS-273 was > 100 µM (inactive) throughout.
As for `COC(=O)/C=c1\s/c(=C\C(=O)OC)c2ccccc12`, the GI50 was > 100 µM (inactive) in the assay with HOP-18; > 100 µM (inactive) in the assay on RXF 631; 6.28 µM (inactive) in the assay on DLD-1; > 100 µM (inactive) in the assay with M19-MEL; 6.44 µM (inactive) with DMS-273.
For `CC(=O)C1CC(C)=CCC12C(=O)Nc1ccccc12` (stereo not drawn), the GI50 in the assay with HOP-18, in the assay with RXF 631, with XF498, in the assay with DLD-1 and with DMS-273 was > 100 µM (inactive) throughout.
In the case of `COc1ccc2oc(-c3cccnc3)cc(=O)c2c1`, the GI50 in the assay with RXF 631 is 52.7 µM (inactive); with XF498 it was 95.1 µM (inactive); in the assay with DLD-1 it was > 100 µM (inactive); in the assay on M19-MEL, > 100 µM (inactive); with DMS-273 it was 52 µM (inactive).
Regarding `NC(=O)c1ccccc1NC(=O)C(=O)Nc1n[nH]c(N)n1`, the GI50 in the assay on HOP-18, in the assay with XF498, in the assay with DLD-1, with M19-MEL and in the assay on DMS-273 was > 100 µM (inactive) each time.
In the case of `COC(=O)C#CC(N)=O`, the GI50 in the assay with HOP-18 was 53.5 µM (inactive); in the assay on RXF 631, > 100 µM (inactive); with DLD-1, > 100 µM (inactive); in the assay with M19-MEL, > 64.3 µM (inactive); in the assay on DMS-273, > 100 µM (inactive).
For `COc1ccc2c(c1)c(=O)c1ccccc1n2/C=C/C(=O)O`, the GI50 with HOP-18 is > 100 µM (inactive); in the assay on XF498, > 100 µM (inactive); in the assay with DLD-1, > 47 µM (inactive); in the assay with DMS-273, > 41.3 µM (inactive).
For `C[C@]12CCC(=O)C=C1CC[C@@H]1C2CC[C@]2(C)NC(=O)C(C#N)CC12` (stereo partly drawn), the GI50 with XF498, in the assay on DLD-1, with M19-MEL and in the assay with DMS-273 was > 100 µM (inactive) throughout.
In the case of `CC1OC(n2cc(F)c(=O)[nH]c2=O)CCC1O` (stereo not drawn), the GI50 is 67.5 µM (inactive) in the assay with HOP-18; > 77.6 µM (inactive) in the assay with DU-145; > 100 µM (inactive) in the assay with DLD-1; > 100 µM (inactive) in the assay with M19-MEL; 91.2 µM (inactive) in the assay with MDA-N; > 100 µM (inactive) with PC-3. In addition, the GI50 in the assay with DMS-273 is > 100 µM (inactive).
With `COc1ccc2nc3c(C(=O)NCCN(C)C)cccc3cc2c1`, the GI50 is > 100 µM (inactive) in the assay with HOP-18, 1.85 µM (inactive) with XF498, 2.16 µM (inactive) in the assay with DLD-1 and 1.28 µM (inactive) in the assay with DMS-273.
Turning to `NC(Cc1cc(I)c(O)c(I)c1)C(=O)O` (stereo not drawn), the GI50 with HOP-18 is 466 µM (inactive); in the assay on XF498, > 348 µM (inactive); in the assay on DLD-1, 418 µM (inactive); with M19-MEL, > 323 µM (inactive); in the assay on DMS-273, > 206 µM (inactive).
For the compound `CN[C@@H](C)[C@@H](NC)c1ccccc1`, the GI50 in the assay with HOP-18, in the assay with RXF 631, in the assay with DLD-1, with M19-MEL and with DMS-273 was > 100 µM (inactive) in each case.
On to `CC(=O)OC(C)C(=O)C1c2cccc(O)c2C(=O)c2c(O)cc(C)cc21` (stereo not drawn), for which the GI50 in the assay with HOP-18 is 1.12 µM (inactive); in the assay on XF498, 0.234 µM (active); with DLD-1, 1.75 µM (inactive); in the assay with M19-MEL it was 0.367 µM (active); in the assay with DMS-273 it was 0.634 µM (active).
In the case of `CC(=O)Nc1cccc2[nH]c3ccccc3c(=O)c12`, the GI50 in the assay on HOP-18 was 6.82 µM (inactive); in the assay on RXF 631, 27 µM (inactive); in the assay with XF498 it was 23.1 µM (inactive); in the assay on DLD-1, 15.3 µM (inactive); with M19-MEL, 21.8 µM (inactive); in the assay with DMS-273, 32.2 µM (inactive).
Take `[N-]=[N+]=CC(=O)CCC(NC(=O)C(CCC(=O)C=[N+]=[N-])NC(=O)CCC(N)C(=O)O)C(=O)O` (stereo not drawn): the GI50 in the assay on HOP-18, in the assay with XF498, in the assay with DLD-1, with M19-MEL and with DMS-273 was > 100 µM (inactive) each time.

Values taken from ChEMBL document CHEMBL1201862, “PubChem BioAssay data set” (2004).
